According to patent publication US20220211692A1, “Modulators of the Cystic Fibrosis Transmembrane Conductance Regulator Protein and Methods of Use” (AbbVie Global Enterprises Ltd., priority 2021, published 2022):
Where two headings read alike, the source gives them in different places.

Experiments:
F508delCFTR = biological target: T1, F508delCFTR (Homo sapiens, UniProt P13569, DEL508-508); test: Cell Surface Expression-Horse Radish Peroxidase (CSE-HRP) assay in CFBE41o-F508delCFTR-HRP cells; type: cell-based; conditions: for EC50: CFBE41o-F508delCFTR-HRP cells, 18-24 hours at 33° C.; for Emax / Maximum % activity (with co-corrector): normalized to on-plate positive control; for Emax: read-out: Maximum % activity (without co-corrector)
T1 construct: expressed in transfected cells; host or cells: CFBE41o- human lung derived epithelial cell line, doxycycline-induced expression
T1 sequence (P13569 with tags, fused parts or gaps DEL508-508): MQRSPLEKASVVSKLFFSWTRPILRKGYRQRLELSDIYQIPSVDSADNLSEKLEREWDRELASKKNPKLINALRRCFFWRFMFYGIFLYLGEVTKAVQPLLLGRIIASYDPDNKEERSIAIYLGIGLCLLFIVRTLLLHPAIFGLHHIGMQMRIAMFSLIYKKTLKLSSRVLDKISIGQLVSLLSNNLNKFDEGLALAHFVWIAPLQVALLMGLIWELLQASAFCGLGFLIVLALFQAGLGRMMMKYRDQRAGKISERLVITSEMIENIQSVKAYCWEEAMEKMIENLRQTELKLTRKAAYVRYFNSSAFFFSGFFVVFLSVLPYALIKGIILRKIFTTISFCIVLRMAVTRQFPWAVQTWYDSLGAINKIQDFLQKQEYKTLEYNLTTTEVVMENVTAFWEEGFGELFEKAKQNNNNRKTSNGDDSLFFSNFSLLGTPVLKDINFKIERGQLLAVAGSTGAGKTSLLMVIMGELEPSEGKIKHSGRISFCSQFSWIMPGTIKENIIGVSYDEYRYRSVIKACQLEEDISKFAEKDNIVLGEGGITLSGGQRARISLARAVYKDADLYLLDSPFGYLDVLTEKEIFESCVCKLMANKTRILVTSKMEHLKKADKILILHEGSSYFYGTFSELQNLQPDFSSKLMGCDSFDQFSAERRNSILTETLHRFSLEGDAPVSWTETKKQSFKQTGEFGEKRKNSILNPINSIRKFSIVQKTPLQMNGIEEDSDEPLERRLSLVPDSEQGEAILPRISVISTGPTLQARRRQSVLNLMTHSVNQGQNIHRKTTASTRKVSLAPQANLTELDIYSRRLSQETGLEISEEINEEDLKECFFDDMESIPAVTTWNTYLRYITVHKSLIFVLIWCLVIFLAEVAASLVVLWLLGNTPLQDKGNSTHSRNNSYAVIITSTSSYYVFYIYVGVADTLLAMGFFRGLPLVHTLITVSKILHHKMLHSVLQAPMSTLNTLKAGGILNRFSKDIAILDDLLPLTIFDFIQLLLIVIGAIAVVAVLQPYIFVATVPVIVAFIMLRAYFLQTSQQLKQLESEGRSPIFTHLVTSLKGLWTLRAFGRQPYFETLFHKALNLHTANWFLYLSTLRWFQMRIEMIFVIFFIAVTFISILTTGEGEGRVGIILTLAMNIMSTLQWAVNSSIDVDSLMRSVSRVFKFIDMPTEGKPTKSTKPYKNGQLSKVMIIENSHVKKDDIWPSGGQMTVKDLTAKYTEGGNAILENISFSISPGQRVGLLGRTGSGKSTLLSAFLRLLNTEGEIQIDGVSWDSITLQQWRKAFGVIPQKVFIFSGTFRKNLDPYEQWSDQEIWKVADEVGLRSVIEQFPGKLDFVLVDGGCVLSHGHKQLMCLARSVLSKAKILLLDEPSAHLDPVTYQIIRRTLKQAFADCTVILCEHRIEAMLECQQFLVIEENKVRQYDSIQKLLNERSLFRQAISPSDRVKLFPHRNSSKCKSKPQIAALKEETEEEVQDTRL
Experimental: A cellular assay for measuring the F508delCFTR cell surface expression after correction with test compounds either without or with a co-corrector (2 μM of 3-[(2R,4R)-4-({[1-(2,2-difluoro-1,3-benzodioxol-5-yl)cyclopropyl]carbonyl}amino)-7-methoxy-3,4-dihydro-2H-chromen-2-yl]benzoic acid), was developed in human lung derived epithelial cell line (CFBE41o-) (Veit G et al, (2012) Mol Biol Cell. 23(21): 4188-4202). The development was achieved by expressing the F508delCFTR mutation along with a horseradish peroxidase (HRP) in the fourth exofacial loop, and then measuring the HRP activity using luminescence readout from these cells, CFBE41o-F508delCFTR-HIRP, that were incubated overnight with the test corrector compounds, either without or with the co-corrector. For this primary assay, the CFBE41o-F508delCFTR-HRP cells were plated in 384-well plates (Greiner Bio-one; Cat 781080) at 4,000 cells/well along with 0.5 μg/mL doxycycline to induce the F508delCFTR-HRP expression and further incubated at 37° C., […] for 68-72 hours. The test compounds were then added either without or with a co-corrector at the required concentrations and further incubated for 18-24 hours at 33° C. The highest concentration tested was 20 μM or 30 μM (GI-1 to GIII-36) with an 8-point concentration response curve using a 3-fold dilution in both the test compound without or with the co-corrector. Three replicate plates were run to determine one EC50. All plates contained negative controls (dimethyl sulfoxide, DMSO) and positive control (2 μM or 3 μM (GI-1 to GIII-36) of 3-[(2R,4R)-4-({[1-(2,2-difluoro-1,3-benzodioxol-5-yl)cyclopropyl]carbonyl}amino)-7-methoxy-3,4-dihydro-2H-chromen-2-yl]benzoic acid) as well as on-plate concentration response of the positive control. Post incubation, the plates were washed 5× times with Dulbecco's phosphate buffered saline (DPBS), followed by the addition of the HRP substrate, luminol (50 μL), and measuring the HRP activity using luminescence readout on EnVision® Multilabel Plate Reader (Perkin Elmer; product number 2104-0010). The raw counts from the experiment were analyzed using Accelrys® Assay Explorer v3.3.
Z′ greater than 0.5 was used as passing quality control criteria for the plates. The Z′ is defined as:
1−[3*SDPositive Control+3*SDNegative Control/Absolute(MeanPositive Control−MeanNegative Control)]
The % activity measured at each of the 8 test concentrations of the test compound added either without or with a co-corrector (2 μM or 3 μM (GI-1 to GIII-36) of 3-[(2R,4R)-4-({[1-(2,2-difluoro-1,3-benzodioxol-5-yl)cyclopropyl]carbonyl}amino)-7-methoxy-3,4-dihydro-2H-chromen-2-yl]benzoic acid) was normalized to the on-plate positive control using the following formulae:
% activity (Test compound without co-corrector)=[(test compound without co-corrector response−DMSO response)/(positive control response−DMSO response)]*100
% activity (Test compound with co-corrector)=[(test compound with co-corrector response−DMSO response)/(positive control response−DMSO response)]*100
The maximum % activity achieved for the test compound either without or with a co-corrector at any tested concentration is presented in Table 3 along with the respective EC50's calculated using the following general sigmoidal curve with variable Hill slope equation (described as Model 42 in the Accelrys® Assay Explorer v3.3 software):
General sigmoidal curve with concentration, response, top, bottom, EC50 and Hill slope. This model describes a sigmoidal curve with an adjustable baseline, a. The equation can be used to fit curves where response is either increasing or decreasing with respect to the independent variable, “x”.

F508del/F508del CFTR = biological target: T2, F508del/F508del CFTR (Homo sapiens, UniProt P13569, DEL508-508); test: Trans-Epithelial Current Clamp (TECC) assay using primary human bronchial epithelial cells; type: cell-based; conditions: for Emax (% Dual): maximum percent activity relative to positive control (co-corrector 0.15 μM + potentiator 0.45 μM = 100%); for EC50: primary hBE cells F508del/F508del, test corrector with co-corrector and potentiator, 18-24 hours, equivalent CFTR current
T2 construct: cells isolated from CF patients with the homozygous mutation; endogenous in cells; host or cells: primary human bronchial epithelial (hBE) cells from CF patients homozygous for F508del
T2 sequence (P13569 with tags, fused parts or gaps DEL508-508): as above
Description: A cell-based assay was developed using the primary human bronchial epithelial cells (hBE cells) with F508del/F508del CFTR and other mutations.
Primary human bronchial epithelial (hBE) cells from CFTR patients with homozygous F508del/F508del mutation were expanded from 1×10^6 to 250×10^6 cells (Neuberger, T et al., 2011, Methods Mol Biol 741:39-54). For this purpose, cells isolated from CF patients with the homozygous mutation, procured from the CF center tissue procurement and cell culture core at the Marsico Lung Institute at UNC (Randell), the Cystic Fibrosis translational research center at McGill University (University), and Rosalind Franklin University Medical School (RFUMS) were seeded onto 24 well Corning (Cat #3378) filter plates that were coated with 3T3 conditioned media and grown at an air-liquid interface for 35 days using an Ultroser® G supplemented differentiation media. All the primary human bronchial epithelial cells were collected in accordance with institutional review board approval protocols. Apical surface mucus was removed 72 hours before the experiment by incubating the apical surface of the cells for 30 minutes with 3 mM dithiothreitol (DTT) prepared in Dulbecco's phosphate buffered saline (DPBS) with Ca^2+ and Mg^2+. This was followed with aspiration of the mucus from the apical surface along with DPBS. The apical surface was re-washed with phosphate buffered saline (PBS) incubated for 30 minutes followed with aspiration. These hBE cells were then incubated with the desired concentrations of the test C2 corrector compounds along with co-corrector, 4-[(2R,4R)-4-({[1-(2,2-difluoro-1,3-benzodioxol-5-yl)cyclopropyl]carbonyl}amino)-7-(difluoromethoxy)-3,4-dihydro-2H-chromen-2-yl]benzoic acid and potentiator, (5-{3-amino-5-[4-(trifluoromethoxy)benzene-1-sulfonyl]pyridin-2-yl}-1,3,4-oxadiazol-2-yl)methanol, for 18-24 hours at 37° C., 5% CO2. The desired concentrations of the correctors and potentiator compounds were prepared from the 10 mM stocks in differentiation media and were always applied on the basolateral side of the epithelial cells. We also used an assay format where a fixed concentration of potentiator was added chronically along with the corrector compounds. This chronic treatment with the potentiator helped eliminate any interaction that might happen with CFTR modulators (correctors and potentiators) and thereby determined the true efficacy of the modulator combinations reflective of clinical relevance.
The assay uses a Transepithelial Current Clamp (TECC) (Vu, C B et al., 2017; J Med Chem 60:458-473) instrument that can measure the functionality of the mutated channel by measuring the equivalent CFTR current (IEQ) generated by the polarized primary epithelial cells. We used a TECC-24 with a 24-channel electrode manifold allowing for the simultaneous measurement of the transepithelial voltage, VT, and transepithelial resistance, RT, under current clamp conditions, from 24 filters using a 24 well Costar filter plate. The design of the filters in the 24 well filter plates was exactly the same as the design of an individual Transwell filter used in the classical Ussing Chamber with a surface area of 0.33 cm^2. Each measured VT values were corrected for the electrode offset potential measured using buffer alone in a separate plate, and each measured RT values were then corrected for the combined solution series and empty filter resistances. The corrected VT and RT values were then used to calculate the equivalent current, IEQ using Ohm's law (IEQ=VT/RT). The area under the curve (AUC) for the time period between the forskolin peak IEQ response and at the time of bumetanide addition was also calculated using a one-third trapezoid method, in addition to calculating the IEQ. The assay was run in a 24-well format and all 24-wells were measured at the same time point giving a higher throughput for this assay. […]

[1] = with co-corrector 2 μM, read-out: EC50 (with co-corrector)
[2] = without co-corrector, read-out: EC50 (without co-corrector)

CCOc1ccc(C)cc1[C@@]1(C(=O)NS(=O)(=O)c2cccc3nc(C)ccc23)CCCO1 (single isomer, unassigned) [Example 2]
EC50 (F508delCFTR; [1]): 780 nM | EC50 (F508delCFTR; [2]): 1540 nM | Emax (F508delCFTR; without co-corrector): 602% | Emax (% Dual) (F508del/F508del CFTR): 318 % Dual | EC50 (F508del/F508del CFTR): 82.5 nM

COc1ccc(C)cc1C1(C(=O)NS(=O)(=O)c2cccc3nc(C)ccc23)CCC(c2ccccc2)O1 (stereo in doubt) [Example 7, (2S,5S)-2-(2-methoxy-5-methylphenyl)-N-(2-methylquinoline-5-sulfonyl)-5-phenyloxolane-2-carboxamide]
EC50 (F508delCFTR; [1]): 330 nM | EC50 (F508delCFTR; [2]): 530 nM | Emax (F508delCFTR; without co-corrector): 509% | Emax (% Dual) (F508del/F508del CFTR): 283 % Dual | EC50 (F508del/F508del CFTR): 11.7 nM

CCc1ccc(OCC(C)OC)c([C@@]2(C(=O)NS(=O)(=O)c3cccc4nc(C)ccc34)CCCO2)c1 (stereo in doubt) [Example 14, (2R)-2-{5-ethyl-2-[(2S)-2-methoxypropoxy]phenyl}-N-(2-methylquinoline-5-sulfonyl)oxolane-2-carboxamide]
EC50 (F508delCFTR; [1]): 2540 nM | Maximum % activity (with co-corrector) (F508delCFTR; with co-corrector 2 μM): 871% | EC50 (F508delCFTR; [2]): 3490 nM | Emax (F508delCFTR; without co-corrector): 334% | Emax (% Dual) (F508del/F508del CFTR): 161 % Dual | EC50 (F508del/F508del CFTR): 244 nM

CCOc1ccc(C)cc1[C@]1(C(=O)NS(=O)(=O)c2cccc3nc(C)ccc23)CCCO1 [Example 1, (2S)-2-(2-ethoxy-5-methylphenyl)-N-(2-methylquinoline-5-sulfonyl)oxolane-2-carboxamide]
EC50 (F508delCFTR; [1]): 3780 nM | Maximum % activity (with co-corrector) (F508delCFTR; with co-corrector 2 μM): 546% | EC50 (F508delCFTR; [2]): 4940 nM | Emax (F508delCFTR; without co-corrector): 233% | Emax (% Dual) (F508del/F508del CFTR): 226 % Dual | EC50 (F508del/F508del CFTR): 1710 nM

COc1ccc(C)cc1[C@@]1(C(=O)NS(=O)(=O)c2cccc3nc(C)ccc23)CC(C)(C)CO1 [Example 5, (2R)-2-(2-methoxy-5-methylphenyl)-4,4-dimethyl-N-(2-methylquinoline-5-sulfonyl)oxolane-2-carboxamide]
EC50 (F508delCFTR; [1]): 1210 nM | EC50 (F508delCFTR; [2]): 2270 nM | Emax (% Dual) (F508del/F508del CFTR): 242 % Dual | EC50 (F508del/F508del CFTR): 7.8 nM

CCOc1ccc(C)cc1[C@@]1(C(=O)NS(=O)(=O)c2cccc3nc(C4CC4)ccc23)CCCO1 [Example 6, (2R)—N-(2-cyclopropylquinoline-5-sulfonyl)-2-(2-ethoxy-5-methylphenyl)oxolane-2-carboxamide]
EC50 (F508delCFTR; [1]): 1000 nM | EC50 (F508delCFTR; [2]): 1360 nM | Emax (F508delCFTR; without co-corrector): 712% | Emax (% Dual) (F508del/F508del CFTR): 235 % Dual | EC50 (F508del/F508del CFTR): 19.5 nM

COc1ccc(C)cc1[C@@]1(C(=O)NS(=O)(=O)c2cccc3nc(C)ccc23)CC[C@@H](c2ccccc2)O1 [Example 8, (2R,5S)-2-(2-methoxy-5-methylphenyl)-N-(2-methylquinoline-5-sulfonyl)-5-phenyloxolane-2-carboxamide]
EC50 (F508delCFTR; [1]): 440 nM | EC50 (F508delCFTR; [2]): 590 nM | Emax (F508delCFTR; without co-corrector): 702% | Emax (% Dual) (F508del/F508del CFTR): 339 % Dual | EC50 (F508del/F508del CFTR): 3.2 nM

CCc1ccc(Oc2cccnc2OC)c(C2(C(=O)NS(=O)(=O)c3cccc4nc(C)ccc34)CCCO2)c1 (stereo not shown) [Example 18, 2-{5-ethyl-2-[(2-methoxypyridin-3-yl)oxy]phenyl}-N-(2-methylquinoline-5-sulfonyl)oxolane-2-carboxamide]
Emax (% Dual) (F508del/F508del CFTR): 152 % Dual | EC50 (F508del/F508del CFTR): > 800 nM

COc1ccc(C)cc1[C@@]1(C(=O)NS(=O)(=O)c2cccc3nc(C)ccc23)C[C@@H](c2ccccc2)CO1 [Example 32, (2R,4S)-2-(2-methoxy-5-methylphenyl)-N-(2-methylquinoline-5-sulfonyl)-4-phenyloxolane-2-carboxamide]
Emax (% Dual) (F508del/F508del CFTR): 263 % Dual | EC50 (F508del/F508del CFTR): 20.8 nM

COc1ccc(C)cc1[C@]1(C(=O)NS(=O)(=O)c2cccc3nc(N)ccc23)CC(C)(C)CO1 [Example 34, (2S)—N-(2-aminoquinoline-5-sulfonyl)-2-(2-methoxy-5-methylphenyl)-4,4-dimethyloxolane-2-carboxamide]
Emax (% Dual) (F508del/F508del CFTR): 284 % Dual | EC50 (F508del/F508del CFTR): 34.6 nM

COc1ccc(C)cc1[C@@]1(C(=O)NS(=O)(=O)c2cccc3nc(N)ccc23)CC(C)(C)CO1 [Example 35, (2R)—N-(2-aminoquinoline-5-sulfonyl)-2-(2-methoxy-5-methylphenyl)-4,4-dimethyloxolane-2-carboxamide]
Emax (% Dual) (F508del/F508del CFTR): 248 % Dual | EC50 (F508del/F508del CFTR): 443 nM

COc1cccc([C@H]2CO[C@@](C(=O)NS(=O)(=O)c3cccc4nc(C)ccc34)(c3cc(C)ccc3OC)C2)c1 [Example 43, (2R,4S)-2-(2-methoxy-5-methylphenyl)-4-(3-methoxyphenyl)-N-(2-methylquinoline-5-sulfonyl)oxolane-2-carboxamide]
Emax (% Dual) (F508del/F508del CFTR): 216 % Dual | EC50 (F508del/F508del CFTR): 59.9 nM
